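Dose response: 5 concentrations. Exposure: 48 h. Format: 96-well plates. Endpoint: linear interpolation; highest concentration if not reached. GI50 = concentration required for 50% inhibition of growth. At the TGI there is no net growth.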
Assays:
Assay in all cases: DTP human tumour cell line panel, 48 h
HOP-62 NSCLC = system: HOP-62 NSCLC
MDA-MB-435 = system: MDA-MB-435
CAKI-1 renal = system: CAKI-1 renal
HL-60(TB) leukemia = system: HL-60(TB) leukemia

| Compound | TGI (HOP-62 NSCLC) | TGI (MDA-MB-435) | TGI (CAKI-1 renal) | GI50 (HL-60(TB) leukemia) | TGI (HL-60(TB) leukemia) |
| --- | --- | --- | --- | --- | --- |
| C/C(=C\c1ccccc1)n1c(=O)cc(C)n1C | > 100 µM | > 100 µM | > 100 µM |  |  |
| H-KIFKKFKTIIKKVWRIFGRF-NH2 |  |  |  | 5.23 µM | 57.1 µM |

Source: PubChem BioAssay (NCI)
